Data from ChEMBL document CHEMBL4346718, “Cucurbitacins inspired organic synthesis: Potential dual inhibitors targeting EGFR - MAPK pathway” (Eur J Med Chem, 2019).
One block for each molecule: values may come before it. Activity calls are given as the source filed them. The calls are words filed in the database; no cut-off is given here.

Assays:
[1] = tested on: HepG2; assay: Inhibition of cell migration in human HepG2 cells at IC50 incubated for 48 hrs by phase contrast microscopy; type: functional
[2] = tested on: HepG2; assay: Antiproliferative activity against human HepG2 cells assessed as reduction in cell growth incubated for 48 hrs by MTT assay; type: functional, cell-based; settings: HepG2, 48 h
[3] = tested on: HepG2; assay: Inhibition of EGFR/MAPK signalling pathway in human HepG2 cells assessed as reduction in phosphorylation of EGFR at 2 uM incubated for 2 hrs by Western blot analysis; type: cell-based
[4] = tested on: HepG2; assay: Inhibition of EGFR/MAPK signalling pathway in human HepG2 cells assessed as reduction in phosphorylation of B-RAF at 2 uM incubated for 8 hrs by Western blot analysis; type: cell-based
[5] = tested on: HepG2; assay: Inhibition of EGFR/MAPK signalling pathway in human HepG2 cells assessed as reduction in phosphorylation of MEK at 2 uM incubated up to 48 hrs by Western blot analysis; type: cell-based
[6] = tested on: HepG2; assay: Inhibition of EGFR/MAPK signalling pathway in human HepG2 cells assessed as reduction in phosphorylation of ERK 1/2 at 2 uM incubated up to 48 hrs by Western blot analysis; type: cell-based
[7] = tested on: HepG2; assay: Induction of cell cycle arrest in human HepG2 cells assessed as accumulation at S phase at 1 uM incubated for 24 hrs by flow cytometry analysis (reference value: 26.1%); type: functional
[8] = tested on: HepG2; assay: Induction of cell cycle arrest in human HepG2 cells assessed as accumulation at G2 phase at 4 uM incubated for 24 hrs by flow cytometry analysis (reference value: 37.5%); type: functional
[9] = tested on: HepG2; assay: Inhibition of EGFR/MAPK signalling pathway in human HepG2 cells assessed as reduction in phosphorylation of B-RAF at 3 uM incubated for 24 hrs by Western blot analysis; type: cell-based
[10] = tested on: HepG2; assay: Induction of cell cycle arrest in human HepG2 cells assessed as accumulation at G1 phase at 2 uM incubated for 24 hrs by flow cytometry analysis (reference value: 32.3%); type: functional
[11] = tested on: HepG2; assay: Inhibition of EGFR/MAPK signalling pathway in human HepG2 cells assessed as reduction in phosphorylation of ERK 1/2 at 3 uM incubated up to 48 hrs by Western blot analysis; type: cell-based
[12] = tested on: HepG2; assay: Induction of cell cycle arrest in human HepG2 cells assessed as accumulation at S phase at 2 uM incubated for 24 hrs by flow cytometry analysis (reference value: 26.1%); type: functional
[13] = tested on: HepG2; assay: Induction of cell cycle arrest in human HepG2 cells assessed as accumulation at G2 phase at 2 uM incubated for 24 hrs by flow cytometry analysis (reference value: 37.5%); type: functional
[14] = tested on: HepG2; assay: Induction of cell cycle arrest in human HepG2 cells assessed as accumulation at G1 phase at 4 uM incubated for 24 hrs by flow cytometry analysis (reference value: 32.3%); type: functional
[15] = tested on: HepG2; assay: Induction of cell cycle arrest in human HepG2 cells assessed as accumulation at S phase at 4 uM incubated for 24 hrs by flow cytometry analysis (reference value: 26.1%); type: functional
[16] = tested on: HepG2; assay: Induction of apoptosis in human HepG2 cells assessed as increase in cleaved caspase-9 level at 2 uM incubated for 48 hrs by Western blot analysis; type: functional, cell-based
[17] = tested on: HepG2; assay: Inhibition of EGFR/MAPK signalling pathway in human HepG2 cells assessed as reduction in ELK phosphorylation incubated for 24 hrs by Western blot analysis; type: cell-based
[18] = tested on: HepG2; assay: Inhibition of EGFR/MAPK signalling pathway in human HepG2 cells assessed as reduction in phosphorylation of EGFR at 3 uM incubated for 48 hrs by Western blot analysis; type: cell-based
[19] = tested on: HepG2; assay: Induction of cell cycle arrest in human HepG2 cells assessed as accumulation at G1 phase at 1 uM incubated for 24 hrs by flow cytometry analysis (reference value: 32.3%); type: functional
[20] = tested on: HepG2; assay: Inhibition of EGFR/MAPK signalling pathway in human HepG2 cells assessed as reduction in phosphorylation of MEK at 3 uM incubated up to 48 hrs by Western blot analysis; type: cell-based
[21] = tested on: HepG2; assay: Induction of apoptosis in human HepG2 cells assessed as increase in cleaved caspase-3 level at 2 uM incubated for 48 hrs by Western blot analysis; type: functional, cell-based
[22] = tested on: HepG2; assay: Induction of apoptosis in human HepG2 cells assessed as increase in cleaved PARP-1 level at 2 uM incubated for 48 hrs by Western blot analysis; type: functional, cell-based
[23] = tested on: HepG2; assay: Induction of cell cycle arrest in human HepG2 cells assessed as accumulation at G2 phase at 1 uM incubated for 24 hrs by flow cytometry analysis (reference value: 37.5%); type: functional

IC50 [2]: 3 µM
Structure (SMILES): COc1ccc2c(c1)CC[C@@H]1[C@@H]2CC[C@]2(C)C([C@](C)(O)C(=O)/C=C/C(C)(C)O)=CC[C@@H]12
inhibition [3]: Active
inhibition [4]: Active
inhibition [5]: Active
inhibition [6]: Active
inhibition [1]: Active

IC50 [2]: 2 µM
Structure (SMILES): COc1ccc(/C=C/C(=O)[C@](C)(O)C2=CC[C@H]3[C@@H]4CCc5cc(OC)ccc5[C@H]4CC[C@]23C)cc1

IC50 [2]: 2 µM
Structure (SMILES): COc1ccc2c(c1)CC[C@@H]1[C@@H]2CC[C@]2(C)C([C@@](C)(O)C(=O)/C=C/c3ccc(C(F)(F)F)cc3)=CC[C@@H]12

IC50 [2]: 25 µM
Structure (SMILES): COc1ccc2c(c1)CC[C@@H]1[C@@H]2CC[C@]2(C)C([C@@](C)(O)C(=O)/C=C/c3ccc(Cl)cc3)=CC[C@@H]12

IC50 [2]: 2 µM
Structure (SMILES): COc1ccc2c(c1)CC[C@@H]1[C@@H]2CC[C@]2(C)C([C@@](C)(O)C(=O)/C=C/C(C)(C)O)=CC[C@@H]12
Activity [7]: 23.4%
Activity [8]: 21.1%
inhibition [9]: Active
Activity [10]: 37.6%
inhibition [11]: Active
Activity [12]: 23.2%
Activity [13]: 34.1%
Activity [14]: 41.1%
Activity [15]: 37.4%
Activity [16]: Active
inhibition [17]: Active
inhibition [18]: 90%
Activity [19]: 36.1%
inhibition [20]: Active
Activity [21]: Active
Activity [22]: Active
Activity [23]: 38%
inhibition (INH) [1]: 100%

IC50 [2]: 8 µM
Structure (SMILES): COc1ccc2c(c1)CC[C@@H]1[C@@H]2CC[C@]2(C)C([C@](C)(O)C(=O)/C=C/c3ccc(F)cc3)=CC[C@@H]12

Continued, molecule first:

Structure (SMILES): C#Cc1cccc(Nc2ncnc3cc(OCCOC)c(OCCOC)cc23)c1 [ERLOTINIB]
inhibition (INH) [1]: 93%

Structure (SMILES): COc1ccc2c(c1)CC[C@@H]1[C@@H]2CC[C@]2(C)C([C@@](C)(O)C(=O)/C=C/c3ccc(F)cc3)=CC[C@@H]12
IC50 [2]: 7 µM

Structure (SMILES): COc1ccc2c(c1)CC[C@@H]1[C@@H]2CC[C@]2(C)C([C@@](C)(O)C(=O)/C=C/c3ccc(Br)s3)=CC[C@@H]12
IC50 [2]: 0.7 µM

Structure (SMILES): COc1ccc(/C=C/C(=O)[C@@](C)(O)C2=CC[C@H]3[C@@H]4CCc5cc(OC)ccc5[C@H]4CC[C@]23C)cc1
IC50 [2]: 16 µM

Structure (SMILES): COc1ccc2c(c1)CC[C@@H]1[C@@H]2CC[C@]2(C)C([C@@](C)(O)C(=O)/C=C/c3ccc(Br)cc3)=CC[C@@H]12
IC50 [2]: 32 µM

Structure (SMILES): COc1ccc2c(c1)CC[C@@H]1[C@@H]2CC[C@]2(C)C([C@](C)(O)C(=O)/C=C/c3ccc([N+](=O)[O-])cc3)=CC[C@@H]12
IC50 [2]: 29 µM

Structure (SMILES): COc1ccc2c(c1)CC[C@@H]1[C@@H]2CC[C@]2(C)C([C@@](C)(O)C(=O)/C=C/c3ccc(Br)o3)=CC[C@@H]12
IC50 [2]: 6 µM

Structure (SMILES): COc1ccc2c(c1)CC[C@@H]1[C@@H]2CC[C@]2(C)C([C@](C)(O)C(=O)/C=C/c3ccc(Br)s3)=CC[C@@H]12
IC50 [2]: 11 µM

Structure (SMILES): COc1ccc2c(c1)CC[C@@H]1[C@@H]2CC[C@]2(C)C([C@@](C)(O)C(=O)/C=C/c3ccc([N+](=O)[O-])cc3)=CC[C@@H]12
IC50 [2]: 20 µM

Structure (SMILES): COc1ccc2c(c1)CC[C@@H]1[C@@H]2CC[C@]2(C)C([C@](C)(O)C(=O)/C=C/c3ccc(C(F)(F)F)cc3)=CC[C@@H]12
IC50 [2]: 3 µM
